Test system: worker ants of Myrmica ruginodis
Experiment: Bioassay for selection of odor source (two arms of a four-arm olfactometer)
Format: in vivo
Details: 10 ants per group, 3 repetitions, max 5 min
Method: Bioassays were performed using the worker ants of Myrmica ruginodis which had been collected in Niigata Prefecture in Japan. The bioassays were performed using only two arms of a four-arm olfactometer (classic 4-Choice Arena Orfactometer, Sigma Scientific LLC) as shown in FIG. 5. Pure air filled in a 47 L gas cylinder was used as an air source, and the air flow rate was adjusted by a regulator. […] The ants were used as each group consisting of 10 ants, the test was started at the time of entering the ants from the inlet 1, and the selection for the odor source was made for a maximum of 5 minutes per repetition. The choice of odor source was determined by counting the number of ants in the insect separation chamber 2 at the end of the test. Five minutes after the start of the experiment, and when all 10 ants selected any one of odor sources, the results were recorded, and the tested ants were removed. Then three repetitions (using a total of 30 ants) of experiments were performed. Each cotton swab serving as an odor source was installed in each odor source installation adapter 3, and was replaced with a new one at every repetition. The glassware was washed after each repetition, and the odor source installation adapter for installing an odor source in the olfactometer was selected randomly. […]

Compound: CCCCCC(=O)CC [3-octanone]
- number of ants gathering at the odor source (choice of odor source) (cotton swab containing 1.1 mg of mixture (3-octanone diluted with distilled water with Triton X-100) vs distilled water control, FIG. 2): gathered in the alarm pheromone compound treatment section
- number of ants gathering at the odor source (choice of odor source) (cotton swab containing 7.6 mg of mixture (3-octanone diluted in distilled water with Triton X-100) vs distilled water control, FIG. 1): gathered in the control section, while avoiding the alarm pheromone compound treatment section
